Source: ChEMBL document CHEMBL1201862, “PubChem BioAssay data set” (2004)
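Each compound was tested at five concentrations against cells in 96-well plates for 48 hours. Here, GI50 denotes the concentration required for 50% inhibition of growth.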 The source made the active and inactive calls. Rule as the data show it: active = GI50 up to about 1.1 µM and inactive = higher.

Tests used:
Assay in all cases: inhibition of tumour cell growth, NCI panel, 48 h
SF-268 = test system: SF-268
SF-539 = test system: SF-539
SNB-78 = test system: SNB-78
SF-295 = test system: SF-295
A498 = test system: A498
LOX IMVI = test system: LOX IMVI
UO-31 = test system: UO-31
M14 = test system: M14
A549 = test system: A549
OVCAR-5 = test system: OVCAR-5
HOP-62 = test system: HOP-62
XF498 = test system: XF498
DMS-114 = test system: DMS-114
COLO 205 = test system: COLO 205
SK-MEL-2 = test system: SK-MEL-2
SK-OV-3 = test system: SK-OV-3
IGROV-1 = test system: IGROV-1
SK-MEL-5 = test system: SK-MEL-5
ACHN = test system: ACHN
EKVX = test system: EKVX
HCC 2998 = test system: HCC 2998
UACC-62 = test system: UACC-62
SW-620 = test system: SW-620
M19-MEL = test system: M19-MEL
HCT-116 = test system: HCT-116
HCT-15 = test system: HCT-15
SR = test system: SR
OVCAR-4 = test system: OVCAR-4
OVCAR-8 = test system: OVCAR-8
CAKI-1 = test system: CAKI-1
786-0 = test system: 786-0
KM12 = test system: KM12
SN12C = test system: SN12C
TK-10 = test system: TK-10
SNB-75 = test system: SNB-75
HL-60 = test system: HL-60
HOP-18 = test system: HOP-18
CCRF-CEM = test system: CCRF-CEM
NCI-H23 = test system: NCI-H23
OVCAR-3 = test system: OVCAR-3
NCI-H226 = test system: NCI-H226
U-251 = test system: U-251
RPMI-8226 = test system: RPMI-8226
KM-20L2 = test system: KM-20L2
DMS-273 = test system: DMS-273
UACC-257 = test system: UACC-257
NCI-H460 = test system: NCI-H460
MOLT-4 = test system: MOLT-4
Malme-3M = test system: Malme-3M
SNB-19 = test system: SNB-19
SK-MEL-28 = test system: SK-MEL-28
HT-29 = test system: HT-29
K562 = test system: K562
DLD-1 = test system: DLD-1
LXFL 529 = test system: LXFL 529
NCI-H522 = test system: NCI-H522
HOP-92 = test system: HOP-92

Compound: COc1cccc(NC(=O)/C(Cc2nc3ccccc3nc2C)=N/NC(=O)C[n+]2ccccc2)c1
- GI50 (SF-268): > 100 µM (inactive)
- GI50 (SF-539): > 100 µM (inactive)
- GI50 (SNB-78): > 100 µM (inactive)
- GI50 (SF-295): > 100 µM (inactive)
- GI50 (A498): > 100 µM (inactive)
- GI50 (LOX IMVI): > 100 µM (inactive)
- GI50 (UO-31): > 100 µM (inactive)
- GI50 (M14): > 100 µM (inactive)
- GI50 (A549): > 100 µM (inactive)
- GI50 (OVCAR-5): > 100 µM (inactive)
- GI50 (HOP-62): > 100 µM (inactive)
- GI50 (XF498): > 100 µM (inactive)
- GI50 (DMS-114): > 100 µM (inactive)
- GI50 (COLO 205): 20.8 µM (inactive)
- GI50 (SK-MEL-2): > 100 µM (inactive)
- GI50 (SK-OV-3): > 100 µM (inactive)
- GI50 (IGROV-1): > 100 µM (inactive)
- GI50 (SK-MEL-5): > 100 µM (inactive)
- GI50 (ACHN): > 100 µM (inactive)
- GI50 (EKVX): > 100 µM (inactive)
- GI50 (HCC 2998): > 100 µM (inactive)
- GI50 (UACC-62): > 100 µM (inactive)
- GI50 (SW-620): 9.08 µM (inactive)
- GI50 (M19-MEL): > 100 µM (inactive)
- GI50 (HCT-116): 67.1 µM (inactive)
- GI50 (HCT-15): > 100 µM
- GI50 (SR): > 100 µM (inactive)
- GI50 (OVCAR-4): > 100 µM (inactive)
- GI50 (OVCAR-8): > 100 µM (inactive)
- GI50 (CAKI-1): > 100 µM (inactive)
- GI50 (786-0): > 100 µM (inactive)
- GI50 (KM12): > 100 µM (inactive)
- GI50 (SN12C): > 100 µM (inactive)
- GI50 (TK-10): > 100 µM (inactive)
- GI50 (SNB-75): > 100 µM (inactive)
- GI50 (HL-60): > 100 µM (inactive)
- GI50 (HOP-18): > 100 µM (inactive)
- GI50 (CCRF-CEM): 51.5 µM (inactive)
- GI50 (NCI-H23): > 100 µM (inactive)
- GI50 (OVCAR-3): > 100 µM (inactive)
- GI50 (NCI-H226): > 100 µM (inactive)
- GI50 (U-251): 17.7 µM (inactive)
- GI50 (RPMI-8226): 26.5 µM (inactive)
- GI50 (KM-20L2): > 100 µM (inactive)
- GI50 (DMS-273): 63.4 µM (inactive)
- GI50 (UACC-257): 45.4 µM (inactive)
- GI50 (NCI-H460): 66.4 µM (inactive)
- GI50 (MOLT-4): > 100 µM (inactive)
- GI50 (Malme-3M): > 100 µM (inactive)
- GI50 (SNB-19): > 100 µM (inactive)
- GI50 (SK-MEL-28): > 100 µM (inactive)
- GI50 (HT-29): > 100 µM (inactive)
- GI50 (K562): 71.9 µM (inactive)
- GI50 (DLD-1): > 100 µM (inactive)
- GI50 (LXFL 529): > 100 µM (inactive)

Compound: CCCCOC(=O)NC(=O)c1cn(C2CCCCC2)c(=O)[nH]c1=O
- GI50 (SF-268): 30.8 µM (inactive)
- GI50 (SF-539): 18.5 µM (inactive)
- GI50 (SNB-78): 36.6 µM (inactive)
- GI50 (SF-295): 54.3 µM (inactive)
- GI50 (A498): 17.1 µM (inactive)
- GI50 (LOX IMVI): 55.2 µM (inactive)
- GI50 (UO-31): 21.3 µM (inactive)
- GI50 (M14): 50.7 µM (inactive)
- GI50 (A549): 38.5 µM (inactive)
- GI50 (OVCAR-5): > 100 µM (inactive)
- GI50 (HOP-62): 25.3 µM (inactive)
- GI50 (XF498): 54.7 µM (inactive)
- GI50 (DMS-114): 39.8 µM (inactive)
- GI50 (COLO 205): > 100 µM (inactive)
- GI50 (SK-MEL-2): 38 µM (inactive)
- GI50 (NCI-H522): 26.9 µM (inactive)
- GI50 (SK-OV-3): 20.9 µM (inactive)
- GI50 (IGROV-1): 39.2 µM (inactive)
- GI50 (ACHN): 32.2 µM (inactive)
- GI50 (EKVX): > 100 µM (inactive)
- GI50 (HCC 2998): > 100 µM (inactive)
- GI50 (UACC-62): 47.2 µM (inactive)
- GI50 (SW-620): > 100 µM (inactive)
- GI50 (M19-MEL): 71.4 µM (inactive)
- GI50 (HCT-116): 21.5 µM (inactive)
- GI50 (HCT-15): > 100 µM
- GI50 (OVCAR-4): 21.8 µM (inactive)
- GI50 (OVCAR-8): 42.9 µM (inactive)
- GI50 (CAKI-1): > 10 µM (inactive)
- GI50 (786-0): 18.6 µM (inactive)
- GI50 (KM12): 86.1 µM (inactive)
- GI50 (SN12C): > 100 µM (inactive)
- GI50 (TK-10): 46.9 µM (inactive)
- GI50 (HL-60): > 100 µM (inactive)
- GI50 (HOP-18): 19.4 µM (inactive)
- GI50 (CCRF-CEM): > 100 µM (inactive)
- GI50 (NCI-H23): 33 µM (inactive)
- GI50 (OVCAR-3): 40.6 µM (inactive)
- GI50 (HOP-92): 14.3 µM (inactive)
- GI50 (NCI-H226): 20.3 µM (inactive)
- GI50 (U-251): 28.4 µM (inactive)
- GI50 (RPMI-8226): 60.8 µM (inactive)
- GI50 (KM-20L2): 76 µM (inactive)
- GI50 (DMS-273): > 100 µM (inactive)
- GI50 (UACC-257): > 100 µM (inactive)
- GI50 (NCI-H460): > 100 µM (inactive)
- GI50 (MOLT-4): 98.6 µM (inactive)
- GI50 (Malme-3M): 31 µM (inactive)
- GI50 (SNB-19): 26.5 µM (inactive)
- GI50 (SK-MEL-28): 39.8 µM (inactive)
- GI50 (HT-29): 59.4 µM (inactive)
- GI50 (K562): > 100 µM (inactive)
- GI50 (DLD-1): 36.9 µM (inactive)
- GI50 (LXFL 529): 29 µM (inactive)
